Data taken from patent US20170295779A9, “COMPOSITION COMPRISING A PESTICIDE AND AMIDE” (BASF SE, priority 2013, published 2017).

Experiments:
barley (cultivar Lawina) = experiment: Phytotoxicity greenhouse test, spray of carboxylic acid amide on barley; assay type: in vivo; conditions: 3-4 leaf stage, spray 200 l/ha comprising 1500 ml carboxylic acid amide/ha, visual score vs plants treated with water only
Method: Phytotoxicity in accordance with the present invention is determined by an assay where a spray comprising water (aqua dest.) and carboxylic acid amide (200 l/ha comprising 1500 ml carboxylic acid amide/ha) is prepared and applied on plants of barley (cultivar […]) being in 3-4 leaf stage at a water application rate of 1.5 l/ha. The experimental period lasts for 10 days. During this time, the experimental plants receive optimum watering, with nutrients being supplied via the water used for watering. The phytotoxicity is evaluated by awarding scores to the treated plants in comparison to untreated plants, i.e. treated with water only. The evaluation scale ranges from 0% to 100% phytotoxicity. The evaluation is done by visual examination. 0% phytotoxicity means that there are no differences between treated and untreated plants. Thus, no phytotoxicity in accordance with the present invention means that the treated plants to not have plant injury and there is no difference between treated and untreated plants. Low phytotoxicity in accordance with the present invention means that only 1 to 10% of the treated plants have plant injury as compared to untreated plants. For the greenhouse tests, barley (cultivar […]) was sown and cultivated in standard soil (type P, fine) for 3 weeks. The spray mixtures were applied with a minicompressor (4 times) in a laboratory fume hood on plants being in 3-4 leaf stage. A spray comprising water (aqua dest.) and dibutylpropionamide from Example 1 (200 l/ha comprising 1500 ml dibutylpropionamide/ha) was prepared and applied at a water application rate of 1.5 l/ha. The experimental period lasted for 10 days. During this time, the experimental plants received optimum watering, with nutrients being supplied via the water used for watering. The phytotoxicity was evaluated by assessing scores to the treated plants in comparison to untreated plants, i.e. treated with water only (see Table 1). The evaluation scale ranges from 0% to 100% phytotoxicity. The evaluation was done by visual examination. Thus, 0% phytotoxicity means that there were no differences between treated and untreated plants. […] A rating of 0% phytotoxicity means no crop injury. […] A rating of 100% means the complete destruction of all plants. […] Thus, less than 10% of the plants were affected when said carboxylic acid amides were applied on the plants in a dose of 1500 ml/ha. […] Thus, carboxylic acid amides wherein the N,N-alkyl groups are having more than two carbon atoms seem to have no or almost no phytotoxic effect on the plants and can therefore be used in agricultural compositions for reducing the phytotoxicity in such compositions.

[1] = Determination of the max. solubility of fungicides in carboxylic acid amides; assay type: physicochemical
Method: The respective fungicide was dissolved in the solvent of interest so that a supersaturated solution was obtained. The deposit was filtered off. The concentration of the fungicide in the supernatant was determined via quantitative 1H-NMR spectroscopy.

SMILES | Phytotoxicity [%] 10 days after treatment (barley (cultivar Lawina)) [%] | Phytotoxicity [%] 10 days after treatment (barley (cultivar Lawina); listed as dimethylpropionamide) | Solubility [%] Fluxapyroxad [1] [%]
CCCCCCCC(=O)N(CCCC)CCCC [C8-dibutylamide, N,N-dibutyl-octanamide] | 5 |  | 
CCC(=O)N(C)C [Dimethylpropionamide, N,N-dimethyl-propionamide, reference compound] | 43 | up to 43% | 
CCCCN(CCCC)C(=O)CC [Dibutylpropionamide, N,N-dibutyl-propionamide] | 0 |  | 28
CCC(=O)N(CC)CC [Diethylpropionamide, N,N-diethyl-propionamide] | 6 |  | 
